Results on three compounds are retold here after patent US9084793B2, “Methods for treating Alzheimer's disease by administering certain synthetic compounds” (BEIJING JOEKAI BIOTECHNOLOGY LLC, priority 2011, dated 2015).

The test system of experiment [1] is double transgenic mice (APPswe.PSEN1dE9). Kind of experiment: Morris water maze in double transgenic AD-model mice. Type of experiment: in vivo, mouse. As to conditions: two-month treatment (6- to 8-month-old), lavage once daily.
Experiment [2] addresses T1, human EGFR expressed in COS-7 cells (Homo sapiens, UniProt P00533).
T1 construct: expressed in transfected cells; host or cells: COS-7
Kind of experiment: Oligomeric Aβ42-induced phosphorylation of EGFR in COS-7 cells transfected with EGFRwt plasmid (Western blot). Type of experiment: cell-based. To be noted: 10 μg/ml oligomeric Aβ42, COS-7 cells transfected with EGFRwt plasmid. Here is the method: (§1) COS-7 cells were cultured in normal Dulbecco's Modified Eagle Medium (D-MEM) containing 10% fetal bovine serum (Invitrogen) at 37° C. in 5% CO2. Transfection of the cells with an EGFR^WT plasmid was performed following the Lipofectamine 2000 manuals (Invitrogen). After 48 h, cells were washed with fresh medium once and incubated with 10 or 25 μg/ml Aβ42 oligomers for 15 min at 37° C. in 5% CO2. 0.5 μg/ml human EGF (Sigma) was used as a positive control. Cells were then washed with PBS for 3 times and collected.
The preparation procedure was described previously (Dahlgren K, et al., J Biol Chem. 277:32046-53, 2002). Synthetic and recombinant wild type Aβ42 (AnaSpec, Inc.) was initially dissolved to 1 mM in hexafluoroisopropanol (Sigma).
Hexafluoroisopropanol was removed under vacuum in a Speed Vac, and the peptide film was stored at −20° C. For oligomer preparation, the peptide was first resuspended in DMSO to a concentration of 12.5 mg/ml and then diluted with DMEM/F-12 (phenol red-free, Invitrogen) to a final concentration of 500 μg/ml and incubated at 4° C. for 24 h.
(§2) Whole fly head or cells lysates were prepared using a RIPA buffer containing 0.3% SDS, 50 mM Tris-HCl, pH 7.4, 0.5% NP-40, 1% sodium deoxycholate, 150 mM NaCl, 5 mM EDTA, 1 tablet per 50 ml complete protease inhibitor cocktail (Roche Diagnostics). Lysates were diluted in an SDS sample buffer and separated on 10-20% Tris-Tricine gels (Invitrogen), and transferred to nitrocellulose membranes (Invitrogen). The membranes were boiled in PBS for 3 min, blocked with 5% non-fat dry milk and blotted with a first antibody. First antibodies used included mouse anti-Aβ42 (6E10, Covance Research Products), mouse anti-dEGFR (Abcam), rabbit anti-hEGFR (Cell Signaling), mouse anti-hEGFR-p (Cell Signaling) and rabbit anti-Actin (Sigma). Data were analyzed with the ImageJ software (National Institutes of Health).
Behavioral screening was performed with 2000 synthetic compounds (purchased from TimTec LLC, USA) with structures that are presumably targeted to protein kinase activities (FIG. 1A). […]
For orientation: A western blot detects proteins with antibodies after separation by electrophoresis.

The next experiment has as its system Aβ42 transgenic flies. As to the kind of experiment: Pavlovian olfactory associative immediate memory in Aβ42 transgenic flies. Type of experiment: in vivo, Drosophila. As to conditions: Aβ42 transgenic male flies, 7-day drug feeding, 50 μg/ml, tested day 10 after eclosion. Here is the method: Behavioral screening was performed with 2000 synthetic compounds (purchased from TimTec LLC, USA) with structures that are presumably targeted to protein kinase activities (FIG. 1A). Only male flies were selected for 7-day drug treatment and then subjected to behavioral assay at day 10 after eclosion. […] Among them, 9 were tested in double transgenic mice and compounds were indicated to have positive results after 2 months of treatment (6- to 8-month-old) (FIG. 1A-G).

For experiment [3], the target named is T1, human EGFR expressed in COS-7 cells. Kind of experiment: Normal p-EGFR level in EGFRwt-expressing COS-7 cells without oligomeric Aβ42 (Western blot). Type of experiment: cell-based. As to conditions: 100 μg/ml compound, EGFRwt-expressing COS-7 cells without oligomeric Aβ42 peptides. On the procedure:
FIG. 2. […] 100 μg/ml JKF-006, JKF-011 and JKF-027 were used to treat EGFR^wt-expressing COS-7 cells without oligomeric Aβ42 peptides. […] N=3-4.
as §1, §2

Entries after “also recorded” stand apart in the source; their conditions may differ.

Consider “2-Propenamide, 2-cyano-N-[2-(1H- indol-3-yl)ethyl]-3-[5- (4-morpholinyl)-2- furanyl]- [JKF-027]”, for which the “Rescue of Aβ-induced memory loss (Morris water maze)” value (shortened to “Rescue of Aβ-induced memory loss”) in experiment [1] (55 mg/kg/day) is “Rescue of Aβ-induced memory loss; also recorded: effective results in rescuing the memory loss”. Also, the “Effect on oligomeric Aβ42-induced increase of p-EGFR activity” value in experiment [2] was “capable of inhibiting induced p-EGFR activity; also recorded: significantly inhibit”. Also, in the experiment on Aβ42 transgenic flies, the “Rescue/prevention of Aβ42-induced memory loss (performance index)” value is given as “effective in rescuing memory loss”. In addition, in experiment [3], the “Effect on normal (endogenous) p-EGFR level” value is on record as “None of the compounds changed the p-EGFR level; also recorded: incapable of affecting the endogenous p-EGFR level”.
Regarding `N#C/C(=C/c1ccc(-c2cc(C(=O)O)ccc2Cl)o1)C(=O)Nc1ccc(F)cc1` [JKF-006, Benzoic acid, 4-chloro-3-[5-[2-cyano-3-[(4-fluorophenyl)amino]-3-oxo-1-propen-1-yl]-2-furanyl]-], in experiment [1] (58 mg/kg/day), the “Rescue of Aβ-induced memory loss” value is “Rescue of Aβ-induced memory loss; also recorded: effective results in rescuing the memory loss”. Moreover, the “Effect on oligomeric Aβ42-induced increase of p-EGFR activity” value in experiment [2] was “capable of inhibiting induced p-EGFR activity; also recorded: significantly inhibit”. Also, the “Rescue/prevention of Aβ42-induced memory loss (performance index)” value in the experiment with Aβ42 transgenic flies is “effective in rescuing memory loss”. Also, the “Effect on normal (endogenous) p-EGFR level” value in experiment [3] was “None of the compounds changed the p-EGFR level; also recorded: incapable of affecting the endogenous p-EGFR level”.
As for `O=C1CNCCN1` [JKF-011, Piperazin-2-one], in experiment [1] (14 mg/kg/day), the “Rescue of Aβ-induced memory loss” value is given as “Rescue of Aβ-induced memory loss; also recorded: effective results in rescuing the memory loss”. Also, the “Effect on oligomeric Aβ42-induced increase of p-EGFR activity” value in experiment [2] was “capable of inhibiting induced p-EGFR activity; also recorded: significantly inhibit”. Also, in the experiment on Aβ42 transgenic flies, the “Rescue/prevention of Aβ42-induced memory loss (performance index)” value is given as “effective in rescuing memory loss”. In addition, the “Effect on normal (endogenous) p-EGFR level” value in experiment [3] is “None of the compounds changed the p-EGFR level; also recorded: incapable of affecting the endogenous p-EGFR level”.
